Details: spectrophotometry at 340 nm for 5 minutes
Experimental: The glutathione reductase activity was assayed using the kit: “Glutathione reductase assay kit” marketed by the company Calbiochem. The reaction mixture is analyzed by spectrophotometry at 340 nm for 5 minutes.

Manganese dipyridoxyl phosphate [Mangafodipir]
glutathione reductase activity: 19.9±1.75 mU glutathione reductase per milligram of Mangafodipir

Source: patent US7351722B2, “Use of Mangafodipir for treating oxidative stress effects” (Universite Rene Descartes (Paris V), priority 2001, dated 2008)
